The text below walks through data of patent US6642355B2, “Endothelin-antagonizing peptide” (priority 1991, dated 2003).

Where two headings read alike, the source gives them in different places.

Assay [1] concerns the target T1, endothelin receptor (Bos taurus, UniProt P21450).
T1 construct: the suspension was used as the membrane fraction liquid; from tissue
T1 sequence (P21450 21-427): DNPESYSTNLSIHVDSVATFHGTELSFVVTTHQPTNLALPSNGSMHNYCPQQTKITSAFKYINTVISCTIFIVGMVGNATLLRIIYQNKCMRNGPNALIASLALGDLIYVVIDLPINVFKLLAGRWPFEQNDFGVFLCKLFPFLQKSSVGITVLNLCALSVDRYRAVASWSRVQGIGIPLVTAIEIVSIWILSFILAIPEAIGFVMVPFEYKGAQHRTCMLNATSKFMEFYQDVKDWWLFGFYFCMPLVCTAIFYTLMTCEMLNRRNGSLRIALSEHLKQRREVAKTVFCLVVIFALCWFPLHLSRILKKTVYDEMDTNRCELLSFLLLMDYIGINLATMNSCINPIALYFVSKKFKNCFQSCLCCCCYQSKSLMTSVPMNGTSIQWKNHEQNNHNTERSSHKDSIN
Description: Endothelin receptor-antagonizing activity: 125I-endothelin-1 binding to bovine lung membrane fraction with […] Compound (I-1) added. How it is done:
Bovine lung tissue was homogenized at 4° C. using POLYTRON (type PT10/35, manufactured by Kinematica GmbH Co.) in a buffer solution A (pH 8.3) comprising 1 mM NaHCO3, 5 mM ethylenediaminetetraacetic acid, 5 μg/ml leupeptin, 5 μg/ml pepstatin A and 40 μM phenylmethylsulfonyl fluoride.
The inhibition rate against endothelin receptor binding activity was calculated according to the following equation.
Inhibition rate=(C−A/C−B)=100 (%)

The target in assay [2] is T2, endothelin receptor (Bos taurus, UniProt P28088).
T2 construct: from tissue; host or cells: bovine cerebellar membrane fraction
T2 sequence (P28088 27-441): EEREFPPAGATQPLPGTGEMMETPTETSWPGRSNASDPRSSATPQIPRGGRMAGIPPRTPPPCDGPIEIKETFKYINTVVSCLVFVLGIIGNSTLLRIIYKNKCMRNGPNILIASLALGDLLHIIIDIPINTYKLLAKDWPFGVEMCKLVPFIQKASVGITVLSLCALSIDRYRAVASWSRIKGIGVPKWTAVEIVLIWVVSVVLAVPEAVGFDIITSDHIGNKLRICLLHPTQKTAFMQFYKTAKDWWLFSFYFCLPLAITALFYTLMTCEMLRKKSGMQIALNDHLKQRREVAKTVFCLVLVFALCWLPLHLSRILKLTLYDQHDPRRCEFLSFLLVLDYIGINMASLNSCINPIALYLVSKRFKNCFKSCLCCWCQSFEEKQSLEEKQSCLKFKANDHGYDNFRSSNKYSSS
Description: Endothelin receptor-antagonizing effect: 125I-endothelin-1 binding to bovine cerebellar tissue membrane fraction. As to conditions: bovine cerebellar tissue membrane fraction.

The subject of a further assay is endothelin-3. Description: Effect against airway contraction due to endothelin in anesthetized guinea pigs. It is filed as in vivo. As to conditions: guinea pig; for Rate of inhibition (%) of airway contraction, earlier phase 30 seconds: 30 seconds after endothelin-3; for Rate of inhibition (%) of airway contraction, later phase 3 minutes: 3 minutes after endothelin-3. How it is done: The in vivo effect of the compounds according to the present invention against airway contraction was evaluated according to a slightly modified version of the method of C. Touvay et al. described in European Journal of Pharmacology, 176, 23-33, 1990. That is, male Hartley guinea pigs weighing 350 to 550 grams each which had been previously β-blocked by intravenous injection of propranolol (3 mg/kg) were anesthetized, bronchial cannula were inserted therein and fixed, and connected to an artificial respirator. Next, spontaneous breathing was stopped with 10 mg/kg Gallamine triethiodide (product of sigma Co.), administered intravenously after which artificial respiration was initiated at a determined rate. A respiration volume measuring device was connected to the bronchial cannula bypass, and the change in the air flow was measured as an indication of airway contraction. Endothelin-3 (1.5 μmol/l; product of Peptide Institute, Inc.) was intravenously injected at a dose of 0.1 ml per 100 g body weight. Airway contraction (air flow increase) was observed immediately after injection, and was followed by a diphasic airway contraction reaction with an early and late phase which peaked at 30 seconds and 3 minutes, respectively.
Rate of inhibition (%)=(1−b/a)×100 a: Airway contraction without injection of Compound (I-1) (control) b: Airway contraction with injection of Compound (I-1)

The target of assay [3] is endothelin receptor of bovine cerebellar tissue (membrane fraction) (bovine). Description: 125I-endothelin-1 displacement, bovine cerebellar membrane fraction.
For assay [4], the target named is endothelin receptor of bovine lung tissue (membrane fraction) (bovine). Description: 125I-endothelin-1 displacement, bovine lung membrane fraction with 1.5 ug/ml Compound (I-1) added.
Assay [5] has as its target endothelin receptor of bovine cerebellar tissue (membrane fraction) (bovine). Description: 125I-endothelin-1 displacement, bovine cerebellar membrane fraction. This is another data set of the same source.

Usually IC50 stands for the concentration needed to halve the response being measured. A lower IC50 goes with inhibition by little substance. Turning to `C[C@@H]1NC(=O)[C@H]([C@@H](C)O)NC(=O)CNC(=O)[C@H](Cc2c[nH]cn2)NC(=O)[C@H](Cc2c[nH]c3ccccc23)NC(=O)[C@H](CC(N)=O)NC(=O)CNC(=O)C[C@@H](C(=O)N[C@@H](Cc2c[nH]c3ccccc23)C(=O)N[C@@H](Cc2ccccc2)C(=O)N[C@@H](Cc2ccccc2)C(=O)N[C@@H](CC(N)=O)C(=O)N[C@@H](Cc2ccc(O)cc2)C(=O)N[C@@H](Cc2ccc(O)cc2)C(=O)N[C@@H](Cc2c[nH]c3ccccc23)C(=O)OCc2ccccc2)NC(=O)[C@@H]2CCCN2C1=O` [Compound I-47], the results for the IC50 at endothelin receptor [1] and on endothelin receptor [2] were above 470 nM and 140 nM, respectively.
`C[C@@H]1NC(=O)[C@H]([C@@H](C)O)NC(=O)CNC(=O)[C@H](Cc2c[nH]cn2)NC(=O)[C@H](Cc2c[nH]c3ccccc23)NC(=O)[C@H](CC(N)=O)NC(=O)CNC(=O)C[C@@H](C(=O)N[C@@H](Cc2c[nH]c3ccccc23)C(=O)N[C@@H](Cc2ccccc2)C(=O)N[C@@H](Cc2ccccc2)C(=O)N[C@@H](CC(N)=O)C(=O)N[C@@H](Cc2ccc(O)cc2)C(=O)N[C@@H](Cc2ccc(O)cc2)C(=O)N[C@@H](Cc2c[nH]c3ccccc23)C(=O)O)NC(=O)[C@@H]2CCCN2C1=O` [Compound I-1]: the “Rate of inhibition (%) of airway contraction, earlier phase 30 seconds” value was found to be 12.5% with endothelin-3 (0.1 mg/kg i.v.), 46.0% in the assay with endothelin-3 (0.3 mg/kg i.v.) and 91.8% in the assay on endothelin-3 (1.0 mg/kg i.v.). The “Rate of inhibition (%) of airway contraction, later phase 3 minutes” value was found to be 44.0% with endothelin-3 (0.1 mg/kg i.v.), 52.7% with endothelin-3 (0.3 mg/kg i.v.) and 78.2% in the assay with endothelin-3 (1.0 mg/kg i.v.).
For the molecule GNWHGTSPDWFFNYYW (modifications not checked) [Compound (I-3)], the IC50 in assay [3] amounted to 5 nM.

B1: Compound (I-45) (peptide)
peptide: GNWHGTAPDWFFNYY
modifications: lactam Gly 1 N-terminus to Asp 9 side chain; C-terminal carboxyl of Tyr 15 amidated with Trn, 2-(3-indolyl)ethylamine
For the molecule B1, the IC50 in assay [4] came to 300 nM; in assay [5] it was 50 nM.
